# Data: publication PMC4399250, “Characterization of HIV-1 entry inhibitors with broad activity against R5 and X4 viral strains” (Journal of Translational Medicine, 2015)
# Where two headings read alike, the source gives them in different places.
# Columns and labels:
# [1] = system: HIV-1 BaL (R5); assay: HIV-1 acute infection of PHA-activated PBMC, p24 ELISA, BaL strain; assay type: cell-based; settings: for effect on R5 HIV-1 replication (in words): p24 day 7, concentrations tested up to 30 μM for the six compounds
# [2] = system: HIV-1 IIIB (X4); assay: HIV-1 acute infection of PHA-activated PBMC, p24 ELISA, IIIB strain; assay type: cell-based; settings: for effect on X4 HIV-1 replication (in words): p24 day 7, concentrations tested up to 30 μM for the six compounds
# [3] = system: HIV-1 BaL (R5); assay: HIV-1 fusion assay, PM1-BaL donor and TZM-bl target cells; assay type: cell-based; settings: PM1-BaL donor, TZM-bl target, 2.5% FCS
# [4] = system: HIV-1 IIIB (X4); assay type: cell-based
# [5] = molecular target: CXCR4 (Homo sapiens, UniProt P61073); assay: Flow cytometry competition with anti CXCR4 moAbs; assay type: binding; settings: PM1 cells; ND-4043 30, 10, 3 μM; AMD3100 3, 0.3, 0.03 μM
# [6] = system: PBMC; assay: MTT cytotoxicity assay on PBMC; assay type: cell-based, human; settings: infected PBMC
# Protocol: PBMC and TZM-bl viability was measured by the MTT [3-(4,5- dimethylthiazol-2-yl)-2,5-diphenyl tetrazolium bromide; Sigma] assay. Cells were seeded in 96-well plates in three replicates and were incubated for four (TZM-bl) or six (PBMC) days with different concentrations of the compounds or DMSO alone at 0.2% as control. Then 10μl of complete medium containing MTT (0.5 mg/ml) was added to each well. After 24h incubation at 37°C, the supernatant was removed and 200μl of ethanol was added to each well to solubilize the formazan crystals. After vigorous shaking, absorbance was measured in a microplate reader at 490 nm.
# [7] = system: influenza A virus; assay: Influenza virus-like particle entry assay in MDCK cells; assay type: cell-based; settings: three concentrations, bafilomycin 100 nM
# [8] = BaL (R5), infected PBMC, p24 day 7
# [9] = IIIB (X4), infected PBMC, p24 day 7
# Chain of CXCR4 (P61073 whole entry): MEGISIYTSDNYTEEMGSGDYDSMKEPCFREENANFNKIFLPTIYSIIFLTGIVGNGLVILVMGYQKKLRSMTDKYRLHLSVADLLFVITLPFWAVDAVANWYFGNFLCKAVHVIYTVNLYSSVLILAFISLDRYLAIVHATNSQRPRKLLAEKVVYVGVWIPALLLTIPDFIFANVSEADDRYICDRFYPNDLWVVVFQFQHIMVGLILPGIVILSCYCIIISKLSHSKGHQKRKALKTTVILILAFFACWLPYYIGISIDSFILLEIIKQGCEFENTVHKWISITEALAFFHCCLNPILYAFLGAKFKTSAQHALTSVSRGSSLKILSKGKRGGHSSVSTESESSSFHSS
molecule,measurement,setting,value
Maraviroc,concentration inhibiting R5 HIV-1 replication,"[1]; PBMC, p24 day 7, ten fold dilutions, complete blockade for maraviroc",0.1 µM
same,activity relative to ND-4043 on R5 inhibition,[1]; side-by-side comparison,approximately 100 fold
same,effect on X4 HIV-1 replication (in words),[2]; PBMC,no effect
same,effect on R5-mediated fusion (in words),[3],selectively blocked entry
c1cc(CN2CCCNCCNCCCNCC2)ccc1CN1CCCNCCNCCCNCC1 [AMD3100],effect on R5 HIV-1 replication (in words),[1]; PBMC,no effect
same,effect on X4-mediated fusion (in words),[4],selectively blocked entry
same,effect on binding of four anti-CXCR4 moAbs,[5],inhibited binding of the four moAbs in a concentration-dependent manner
same,concentration inhibiting X4 HIV-1 replication,"[2]; PBMC, p24 day 7, ten fold dilutions, complete inhibition for AMD3100",0.01 µM
same,activity relative to ND-4043 on X4 inhibition,[2]; side-by-side comparison,approximately 100 fold
"Cn1cc(NC(=O)c2cc(NC(=O)c3cc(NC=O)cn3C)cn2C)cc1C(=O)NCCC(=N)N [compound 4044, distamycin]",CC50,[6]; table section BaL (R5),25 µM
same,CC50,[6]; table section IIIB (X4),30 µM
same,IC50,[1]; [8],> 30 µM
same,IC75,[1]; [8],>30 µM
same,IC90,[1]; [8],> 30 µM
same,effect on R5 HIV-1 replication (in words),[1]; PBMC,not effective
same,effect on X4-mediated fusion (in words),"[4]; SupT1-IIIB donor, TZM-bl target, 2.5% FCS",did not affect
same,IC50,[2]; [9],> 30 µM
same,IC75,[2]; [9],>30 µM
same,IC90,[2]; [9],> 30 µM
same,effect on X4 HIV-1 replication (in words),[2]; PBMC,not effective
same,effect on R5-mediated fusion (in words),[3],did not affect
CO/C1=C\C(C)=C\[C@@H](C)[C@@H](O)[C@@H](C)C/C(C)=C/C=C/[C@H](OC)[C@@H]([C@@H](C)[C@@H](O)[C@H](C)[C@@]2(O)C[C@@H](O)[C@H](C)[C@@H](C(C)C)O2)OC1=O [bafilomycin A1],effect on influenza A virus entry,[7],inhibited viral entry significantly
